Measurements from the supplement of paper PMC10307832.

How the values were obtained:
Test in all cases: relative viability (nuclei count vs DMSO), 5 days (fraction); higher = more cells survive
[1] = compound: CC1=C(C(=NN1)C)CC2=C(C3=C(S2)N(C(=O)N(C3=O)C)CC(C)C)C(=O)N4C[C@@H](CO4)O + C[C@@H](Oc1cc(-c2cnn(C3CCNCC3)c2)cnc1N)c1c(Cl)ccc(F)c1Cl [Crizotinib] (partner 1 µM)
In short: (§1)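 Cells from lung cancer lines were seeded into 1536-well plates and, one day later, dosed by pin tool. Treatments were either a single drug or a fixed dose of an anchor drug with five library-drug doses (not always all listed) in √10 steps. After 5 days, nuclei were stained in a one-step fixation (final 0.05% Triton X-100, 1% formaldehyde, 1 ug/ml Hoechst) and counted on 4× images, and relative viability is the treated-to-vehicle nuclei ratio, as the median of duplicate plates.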

[2] = compound: CC1=C(C(=NN1)C)CC2=C(C3=C(S2)N(C(=O)N(C3=O)C)CC(C)C)C(=O)N4C[C@@H](CO4)O + Nc1ncn([C@H]2C[C@H](O)[C@@H](CO)O2)c(=O)n1 [Decitabine] (partner 2 µM)
In short: as §1

IDH-C35 + Tozasertib = compound: Cc1ccccc1C(C(=O)NC1CCCCC1)N(C(=O)Cn1ccnc1C)c1cccc(F)c1 [IDH-C35] + Cc1cc(Nc2cc(N3CCN(C)CC3)nc(Sc3ccc(NC(=O)C4CC4)cc3)n2)n[nH]1 [Tozasertib] (partner 0.1 µM)
In short: as §1

IDH-C35 + Vorinostat = compound: Cc1ccccc1C(C(=O)NC1CCCCC1)N(C(=O)Cn1ccnc1C)c1cccc(F)c1 [IDH-C35] + O=C(CCCCCCC(=O)Nc1ccccc1)NO [Vorinostat] (partner 1 µM)
In short: as §1

Row | Cell Line | relative viability ([1]; first compound 0.0025 µM) | relative viability ([1]; first compound 0.007906 µM) | relative viability ([1]; first compound 0.025 µM) | relative viability ([1]; first compound 0.07906 µM) | relative viability ([1]; first compound 0.25 µM) | relative viability ([2]; first compound 0.0025 µM) | relative viability ([2]; first compound 0.007906 µM) | relative viability ([2]; first compound 0.025 µM) | relative viability ([2]; first compound 0.07906 µM) | relative viability ([2]; first compound 0.25 µM) | relative viability (IDH-C35 + Tozasertib; first compound 0.08 µM) | relative viability (IDH-C35 + Tozasertib; first compound 0.253 µM) | relative viability (IDH-C35 + Tozasertib; first compound 0.8 µM) | relative viability (IDH-C35 + Tozasertib; first compound 2.53 µM) | relative viability (IDH-C35 + Tozasertib; first compound 8 µM) | relative viability (IDH-C35 + Vorinostat; first compound 0.08 µM) | relative viability (IDH-C35 + Vorinostat; first compound 0.253 µM) | relative viability (IDH-C35 + Vorinostat; first compound 0.8 µM) | relative viability (IDH-C35 + Vorinostat; first compound 2.53 µM) | relative viability (IDH-C35 + Vorinostat; first compound 8 µM)
1 | NCI-H1666 | 1.04 | 1.16 | 1.05 | 0.977 | 1.08 | 0.631 | 0.831 | 0.74 | 0.666 | 0.658 | 0.585 | 0.752 | 0.619 | 0.58 | 0.536 | 1.04 | 0.997 | 1.08 | 1.04 | 0.971
2 | LC-2-ad | 0.486 | 0.451 | 0.411 | 0.454 | 0.638 | 0.776 | 0.8 | 0.877 | 0.8 | 0.871 | 0.472 | 0.435 | 0.503 | – | 0.428 | 0.694 | 0.701 | 0.67 | 0.632 | 0.677
3 | SK-LU-1 | 0.654 | 0.6 | 0.653 | 0.693 | 0.643 | 0.524 | 0.475 | 0.448 | 0.561 | 0.618 | 0.359 | 0.347 | 0.364 | 0.341 | 0.341 | 0.733 | 0.752 | 0.892 | 0.831 | 0.778
4 | ChaGo-K-1 | 1.13 | 0.876 | – | 1.09 | 1.25 | 0.506 | 0.509 | 0.508 | 0.536 | 0.553 | 0.22 | 0.231 | 0.221 | 0.258 | 0.203 | 0.758 | 0.814 | 0.8 | 0.586 | 0.68
5 | COR-L 105 | 0.969 | 0.738 | 0.668 | 0.748 | 0.771 | 0.574 | 0.632 | 0.653 | 0.644 | 0.615 | 0.351 | 0.313 | 0.386 | 0.383 | 0.337 | 0.932 | 0.959 | 0.722 | 0.803 | 0.688
6 | NCI-H1975 | 0.942 | 1 | 1 | 0.869 | 1.08 | 0.37 | 0.41 | 0.393 | 0.444 | 0.423 | 0.782 | 0.898 | 0.673 | 0.672 | 0.691 | 0.73 | 0.726 | 0.701 | 0.716 | 0.649
7 | NCI-H1993 | 1.07 | 0.901 | 0.965 | 0.853 | 0.932 | 0.59 | 0.523 | 0.607 | 0.595 | 0.536 | 0.545 | 0.614 | 0.551 | 0.579 | 0.536 | 0.726 | 0.717 | 0.77 | 1.08 | 0.897
8 | RERF-LC-KJ | 0.862 | 0.819 | 0.823 | 0.865 | 0.88 | 0.852 | 0.739 | 0.766 | 0.656 | 0.678 | 0.396 | 0.503 | 0.489 | 0.544 | 0.442 | 0.655 | 0.636 | 0.698 | 0.718 | 0.754
9 | NCI-H23 | 0.519 | 0.613 | 0.499 | 0.568 | 0.604 | 0.307 | 0.329 | 0.289 | 0.345 | 0.334 | 0.325 | 0.399 | 0.414 | 0.313 | 0.406 | 0.609 | 0.582 | 0.578 | 0.641 | 0.636
10 | HCC-366 | 0.661 | 1.13 | 0.622 | 0.641 | 0.825 | 0.297 | 0.417 | 0.399 | 0.365 | 0.372 | 0.109 | 0.128 | 0.179 | – | 0.0826 | 0.49 | 0.351 | 0.321 | 0.371 | 0.404
11 | EMC-BAC-2 | 0.806 | 0.866 | 0.753 | 0.788 | 0.866 | 1.03 | 1.01 | 1.03 | 1.03 | 1.03 | 0.304 | 0.298 | 0.314 | 0.28 | 0.283 | 0.474 | 0.464 | 0.47 | 0.528 | 0.542
12 | NCI-H2405 | 0.91 | 0.805 | 0.727 | 0.748 | 0.805 | 0.686 | 0.746 | 0.752 | 0.738 | 0.739 | 0.735 | 0.776 | 0.758 | 0.716 | 0.689 | 1.08 | 0.956 | 0.968 | 1.24 | 1.02
13 | NCI-H358 | 0.639 | 0.543 | 0.566 | 0.66 | 0.7 | 0.198 | 0.237 | 0.208 | 0.204 | 0.217 | 0.099 | 0.112 | 0.112 | 0.0888 | 0.0934 | 0.709 | 0.659 | 0.686 | 0.614 | 0.611
14 | NCI-H1944 | 1.15 | 1.25 | 1.15 | 1.06 | 1.08 | 0.452 | 0.46 | 0.462 | 0.404 | 0.448 | 0.249 | 0.248 | 0.246 | 0.253 | 0.265 | 0.496 | 0.613 | 0.474 | 0.538 | 0.566
15 | EPLC-272H | 0.821 | 0.863 | 0.904 | 0.773 | 1.1 | 0.374 | 0.346 | 0.369 | 0.354 | 0.352 | 0.262 | 0.193 | 0.254 | 0.333 | 0.217 | 0.314 | 0.406 | 0.515 | 0.494 | 0.403
16 | NCI-H1915 | 0.959 | 0.92 | 0.836 | 0.884 | 1.01 | 0.279 | 0.265 | 0.242 | 0.258 | 0.265 | 0.407 | 0.42 | 0.438 | 0.429 | 0.396 | 0.499 | 0.52 | 0.488 | 0.451 | 0.574
17 | NCI-H596 | 1.02 | 1.06 | 0.954 | 1.04 | 1.16 | 1.11 | 1.1 | 1.1 | 0.989 | 1.06 | 1.01 | 0.866 | 0.937 | – | 0.788 | 0.733 | 0.584 | 0.721 | 0.725 | 0.604
18 | NCI-H322M | 1.03 | 1.03 | 0.758 | 0.927 | 0.998 | 0.63 | 0.736 | 0.698 | 0.659 | 0.707 | 0.46 | 0.494 | 0.466 | 0.467 | 0.517 | 0.875 | 0.866 | 0.798 | 0.911 | 0.922
19 | NCI-H647 | 1.26 | 1.32 | 1.02 | 1.05 | 1.38 | 0.48 | 0.44 | 0.298 | 0.535 | 0.321 | 0.29 | 0.244 | 0.21 | 0.261 | 0.284 | 0.541 | 0.565 | 0.577 | 0.769 | 0.528
20 | SK-MES-1 | 1.13 | 0.995 | 1.08 | 0.944 | 0.966 | 0.428 | 0.384 | 0.394 | 0.381 | 0.449 | 0.927 | 0.86 | 0.88 | 0.863 | 0.761 | 1.18 | 1.08 | 1.04 | 1.2 | 1.02
21 | NCI-H2170 | 1.19 | 1.37 | 1.24 | 1.13 | 1.26 | 0.495 | 0.514 | 0.462 | 0.441 | 0.481 | 0.781 | 0.724 | 0.678 | 0.728 | 0.693 | 0.796 | 0.809 | 0.804 | 0.844 | 0.85
22 | NCI-H2085 | 0.923 | 0.726 | 0.8 | 0.89 | 0.862 | 0.526 | 0.543 | 0.536 | 0.473 | 0.661 | 0.793 | 0.845 | 0.751 | 0.793 | 0.718 | 0.88 | 0.784 | 0.81 | 0.86 | 0.719
23 | SW 1573 | 0.955 | 0.866 | 0.798 | 0.786 | 0.812 | 0.529 | 0.519 | 0.634 | 0.534 | 0.504 | 0.187 | 0.14 | 0.239 | 0.194 | 0.184 | 0.859 | 0.851 | 0.7 | 0.588 | 0.666
24 | NCI-H727 | 0.697 | 0.65 | 0.882 | 0.838 | 0.754 | 0.807 | 0.915 | 0.862 | 0.943 | 0.969 | 0.49 | 0.61 | 0.647 | 0.606 | 0.558 | 1.2 | 1.08 | 1.02 | 1.17 | 1.16
25 | NCI-H441 | 0.715 | 0.774 | 0.608 | 0.889 | 0.945 | 0.215 | 0.255 | 0.298 | 0.267 | 0.272 | 0.597 | 0.561 | 0.623 | 0.624 | 0.583 | 0.906 | 0.74 | 0.787 | 0.683 | 0.887
26 | LOU-NH91 | 0.735 | 0.733 | 0.797 | 0.741 | 0.732 | 0.83 | 0.798 | 0.839 | 0.864 | 0.823 | 0.739 | 0.69 | 0.687 | 0.598 | 0.652 | 0.916 | 0.946 | 0.894 | 0.8 | 0.888
27 | NCI-H3122 | 0.281 | 0.26 | 0.276 | 0.259 | 0.299 | 0.393 | 0.454 | 0.47 | 0.448 | 0.389 | 0.363 | 0.401 | 0.394 | 0.317 | 0.42 | 1.01 | 0.947 | 0.793 | 0.773 | 1.08
